Among the data in patent EP4775586A1, “DEUTERATED TETRACYCLIC DERIVATIVE AND USE THEREOF” (priority 2023, dated 2025) are MIC90 values, retold here.

≈ marks a conversion by molar mass, not a printed value. Structures can show the parent of a compound that is named as a salt.

The first experiment concerns Mycobacterium tuberculosis H37Rv. In words: Minimum inhibitory concentration (MIC90) against Mycobacterium tuberculosis H37Rv, Middlebrook 7H9, 96-well plate, 15 days. It counts as cell-based. The conditions noted are these: 360 h; Mycobacterium tuberculosis H37Rv, 15 days of incubation, 90% inhibition of growth, visual reading; read-out: MIC90.
What is called MIC90 is the lowest concentration that inhibits either 90% of growth or 90% of the strains tested, depending on the study. On to `[2H]C([2H])(CC)C(=O)C1([2H])CCN(Cc2c(O)ccc3oc4c(c23)C(=O)OCc2cc(O)ccc2-4)CC1` [YF011, 8-((4-(Butanoyl-2,2-d2)piperidin-1-yl-4-d)methyl)-3,9-dihydroxybenzo[5,6]oxepino[4,3-b]benzofuran-7(5H)-one], for which the MIC90 amounted to 0.0625 µg/mL (≈ 0.138 µM).

For `[2H]C([2H])(c1c(O)ccc2oc3c(c12)C(=O)OCc1cc(O)ccc1-3)N1CCC(C(O)CCC)CC1` (stereo not drawn) [YF015, 3,9-Dihydroxy-8-((4-(1-hydroxybutyl)piperidin-1-yl)methyl-d2)benzo[5,6]oxepino[4,3-b]benzofuran-7(5H)-one], the MIC90 came to 0.0156 µg/mL (≈ 0.0344 µM).

On to `[2H]C1([2H])CC(c2cccc(Cl)c2)CC([2H])([2H])N1C([2H])([2H])c1c(O)ccc2oc3c(c12)C(=O)OCc1cc(O)ccc1-3` [YF008, 8-((4-(3-Chlorophenyl)piperidin-1-yl-2,2,6,6-d4)methyl-d2)-3,9-dihydroxybenzo[5,6]oxepino[4,3-b]benzofuran-7(5H)-one], for which the MIC90 turned out to be 0.0625 µg/mL (≈ 0.126 µM). Still for that read-out and setting: under `[2H]C([2H])(CC)C([2H])(O)C1([2H])CCN(Cc2c(O)ccc3oc4c(c23)C(=O)OCc2cc(O)ccc2-4)CC1` (stereo not drawn) [YF018, 3,9-Dihydroxy-8-((4-(1-hydroxybutyl-1,2,2-d3)piperidin-1-yl-4-d)methyl)benzo[5,6]oxepino[4,3-b]benzofuran-7(5H)-one] stands 0.0156 µg/mL (≈ 0.0342 µM); under `[2H]C([2H])(c1c(O)ccc2oc3c(c12)C(=O)OCc1cc(O)ccc1-3)N1CCC(c2cccc(Cl)c2)CC1` [YF006, 8-((4-(3-Chlorophenyl)piperidin-1-yl)methyl-d2)-3,9-dihydroxybenzo[5,6]oxepino[4,3-b]benzofuran-7(5H)-one], 0.125 µg/mL (≈ 0.254 µM). The same measure, in the same setting: under `[2H]C1([2H])CC(C(=O)CCC)CC([2H])([2H])N1C([2H])([2H])c1c(O)ccc2oc3c(c12)C(=O)OCc1cc(O)ccc1-3` [YF012, 8-((4-Butanoylpiperidin-1-yl-2,2,6,6-d4)-methyl-d2)-3,9-dihydroxybenzo[5,6]oxepino[4,3-b]benzofuran-7(5H)-one] stands 0.0312 µg/mL (≈ 0.0686 µM). On to `[2H]C1([2H])CC(c2cccc(Cl)c2)CC([2H])([2H])N1Cc1c(O)ccc2oc3c(c12)C(=O)OCc1cc(O)ccc1-3` [YF007, 8-((4-(3-Chlorophenyl)piperidin-1-yl-2,2,6,6-d4)methyl)-3,9-dihydroxybenzo[5,6]oxepino[4,3-b]benzofuran-7(5H)-one], for which the MIC90 was determined as 0.125 µg/mL (≈ 0.253 µM). With `[2H]c1c(O)c(C([2H])([2H])N2C([2H])([2H])CC(c3cccc(Cl)c3)CC2([2H])[2H])c2c3c(oc2c1[2H])-c1ccc(O)cc1C([2H])([2H])OC3=O` [YF009, 8-((4-(3-Chlorophenyl)piperidin-1-yl-2,2,6,6-d4)methyl-d2)-3,9-dihydroxybenzo[5,6]oxepino[4,3-b]benzofuran-7(5H)-one-5,5,10,11-d4], the MIC90 stood at 0.125 µg/mL (≈ 0.25 µM). Still for that read-out and setting: under `[2H]C(O)(CCC)C1CCN(C([2H])([2H])c2c(O)ccc3oc4c(c23)C(=O)OCc2cc(O)ccc2-4)CC1` (stereo not drawn) [YF016, 3,9-Dihydroxy-8-((4-(1-hydroxybutyl-1-d)piperidin-1-yl)methyl-d2)benzo[5,6]oxepino[4,3-b]benzofuran-7(5H)-one] stands 0.0156 µg/mL (≈ 0.0343 µM); under `[2H]c1c(O)c(C([2H])([2H])N2C([2H])([2H])CC(C(=O)CCC)CC2([2H])[2H])c2c3c(oc2c1[2H])-c1ccc(O)cc1C([2H])([2H])OC3=O` [YF013, 8-((4-Butanoylpiperidin-1-yl-2,2,6,6-d4)-methyl-d2)-3,9-dihydroxybenzo[5,6]oxepino[4,3-b]benzofuran-7(5H)-one-5,5,10,11-d4], 0.0625 µg/mL (≈ 0.136 µM).

The same experiment, now with this note: H37RV, 360 h.
For the compound `[2H]c1c(O)c(C([2H])([2H])N2C([2H])([2H])CC(C([2H])(O)CCC)CC2([2H])[2H])c2c3c(oc2c1[2H])-c1ccc(O)cc1C([2H])([2H])OC3=O` (stereo not drawn) [YF022, 3,9-Dihydroxy-8-((4-(1-hydroxybutyl-1-d)piperidin-2,2,6,6-d4-1-yl)methyl-d2)benzo[5,6]oxepino[4,3-b]benzofuran-7(5H)-one-5,5,10,11-d4], the MIC90 is 0.0156 µg/mL (≈ 0.0337 µM). The same measure, in the same setting: the result for `[2H]c1c(O)c(C([2H])([2H])N2CCC([2H])(C(O)C([2H])([2H])CC)CC2)c2c3c(oc2c1[2H])-c1ccc(O)cc1C([2H])([2H])OC3=O` (stereo not drawn) [YF023, 3,9-Dihydroxy-8-((4-(1-hydroxybutyl-2,2-d2)piperidin-1-yl-1-d)methyl-d2)benzo[5,6]oxepino[4,3-b]benzofuran-7(5H)-one-5,5,10,11-d4] reads 0.0156 µg/mL (≈ 0.0339 µM); that for `[2H]c1c(O)c(C([2H])([2H])N2C([2H])([2H])CC(C(O)CCC)CC2([2H])[2H])c2c3c(oc2c1[2H])-c1ccc(O)cc1C([2H])([2H])OC3=O` (stereo not drawn) [YF021, 3,9-Dihydroxy-8-((4-(1-hydroxybutyl)piperidin-2,2,6,6-d4-1-yl)methyl-d2)benzo[5,6]oxepino[4,3-b]benzofuran-7(5H)-one-5,5,10,11-d4], 0.0156 µg/mL (≈ 0.0338 µM). The same measure, in the same setting: the result for `[2H]c1c(O)c(C([2H])([2H])N2CCC([2H])(C([2H])(O)C([2H])([2H])CC)CC2)c2c3c(oc2c1[2H])-c1ccc(O)cc1C([2H])([2H])OC3=O` (stereo not drawn) [YF024, 3,9-Dihydroxy-8-((4-(1-hydroxybutyl-1,2,2-d3)piperidin-1-yl-1-d)methyl-d2)benzo[5,6]oxepino[4,3-b]benzofuran-7(5H)-one-5,5,10,11-d4] reads 0.0156 µg/mL (≈ 0.0338 µM).

Staying with this experiment, now noted: Mycobacterium tuberculosis H37Rv, 15 days of incubation, 90% inhibition of growth, visual reading.
`[2H]C1([2H])CC(C(O)CCC)CC([2H])([2H])N1C([2H])([2H])c1c(O)ccc2oc3c(c12)C(=O)OCc1cc(O)ccc1-3` (stereo not drawn) [YF019, 3,9-Dihydroxy-8-((4-(1-hydroxybutyl)piperidin-2,2,6,6-d4-1-yl)methyl)benzo[5,6]oxepino[4,3-b]benzofuran-7(5H)-one] came in with an MIC90 of 0.0078 µg/mL (≈ 0.017 µM).

The compound “3,9-Dihydroxy-8-((4-(1-hydroxybutyl-1-d)piperidin-1-yl)methyl-d2)benzo[5,6]oxepino[4,3-b]benzofuran-7(5H)-one hydrochloride [YF040]” came in with an MIC90 of 0.0156 µg/mL. On the same count and under the same terms, under “8-((4-(Butanoyl-2,2-d2)piperidin-1-yl-4-d)methyl-d2)-3,9-dihydroxybenzo[5,6]oxepino[4,3-b]benzofuran-7(5H)-one-5,5, 10,11-d4 [YF014]” stands 0.0625 µg/mL.

Staying with this experiment, now noted: Mycobacterium tuberculosis, H37RV, 360 h, Mycobacterium tuberculosis H37Rv, 15 days of incubation, 90% inhibition of growth, visual reading.
The compound `[2H]C1([2H])CCCC([2H])([2H])N1Cc1c(O)cc(C(C)(C)C)c2oc3c4ccc(O)cc4oc(=O)c3c12` [YF002, 10-(tert-Butyl)-3,8-dihydroxy-7-((piperidin-1-yl-2,2,6,6-d4)methyl)-6H-benzofuran[3,2-c]chromen-6-one] had an MIC90 of at most 0.0039 µg/mL. On the same count and under the same terms, under `[2H]C(O)(CCC)C1CC([2H])([2H])N(C([2H])([2H])c2c(O)ccc3oc4c(c23)C(=O)OCc2cc(O)ccc2-4)C([2H])([2H])C1` (stereo not drawn) [YF020, 3,9-Dihydroxy-8-((4-(1-hydroxybutyl-1-d)piperidin-2,2,6,6-d4-1-yl)methyl)benzo[5,6]oxepino[4,3-b]benzofuran-7(5H)-one] stands 0.0156 µg/mL (≈ 0.034 µM); under `[2H]C1([2H])CCCC([2H])([2H])N1C([2H])([2H])c1c(O)cc(C(C)(C)C)c2oc3c4ccc(O)cc4oc(=O)c3c12` [YF003, 10-(tert-Butyl)-3,8-dihydroxy-7-((piperidin-1-yl-2,2,6,6-d4)methyl-d2)-6H-benzofuran[3,2-c]chromen-6-one], at most 0.0039 µg/mL. Compound `[2H]c1c(O)c(C([2H])([2H])N2C([2H])([2H])CC(C([2H])(O)CCC)CC2([2H])[2H])c2c3c(oc2c1[2H])-c1ccc(O)cc1C([2H])([2H])OC3=O` (stereo not drawn) [YF046, 3,9-Dihydroxy-8-((4-(1-hydroxybutyl-1-d)piperidin-2,2,6,6-d4-1-yl)methyl-d2)benzo[5,6]oxepino[4,3-b]benzofuran-7(5H)-one-5,5,10,11-d4 hydrochloride] gave an MIC90 of 0.0156 µg/mL. On to `[2H]C([2H])(c1c(O)ccc2oc3c(c12)C(=O)OCc1cc(O)ccc1-3)N1CCC(C(=O)CCC)CC1` [YF010, 8-((4-Butanoyl)piperidin-1-ylmethyl-d2)-3,9-dihydroxybenzo[5,6]oxepino[4,3-b]benzofuran-7(5H)-one], for which the MIC90 was determined as 0.0625 µg/mL (≈ 0.138 µM). On the same count and under the same terms, under `[2H]c1c(O)c(C([2H])([2H])N2CCC([2H])(C(O)C([2H])([2H])CC)CC2)c2c3c(oc2c1[2H])-c1ccc(O)cc1C([2H])([2H])OC3=O` (stereo not drawn) [YF047, 3,9-Dihydroxy-8-((4-(1-hydroxybutyl-2,2-d2)piperidin-1-yl-1-d)methyl-d2)benzo[5,6]oxepino[4,3-b]benzofuran-7(5H)-one-5,5,10,11-d4 hydrochloride] stands 0.0156 µg/mL. `[2H]C1([2H])CC(C(O)CCC)CC([2H])([2H])N1C([2H])([2H])c1c(O)ccc2oc3c(c12)C(=O)OCc1cc(O)ccc1-3` (stereo not drawn) [YF043, 3,9-Dihydroxy-8-((4-(1-hydroxybutyl)piperidin-2,2,6,6-d4-1-yl)methyl)benzo[5,6]oxepino[4,3-b]benzofuran-7(5H)-one hydrochloride] came in with an MIC90 of 0.0156 µg/mL.

On to `[2H]c1c(O)c(C([2H])([2H])N2C([2H])([2H])CC(C(O)CCC)CC2([2H])[2H])c2c3c(oc2c1[2H])-c1ccc(O)cc1C([2H])([2H])OC3=O` (stereo not drawn) [YF045, 3,9-Dihydroxy-8-((4-(1-hydroxybutyl)piperidin-2,2,6,6-d4-1-yl)methyl-d2)benzo[5,6]oxepino[4,3-b]benzofuran-7(5H)-one-5,5,10,11-d4 hydrochloride], for which the MIC90 is 0.0156 µg/mL. Still for that read-out and setting: under `[2H]C([2H])(c1c(O)cc(C(C)(C)C)c2oc3c4ccc(O)cc4oc(=O)c3c12)N1C([2H])([2H])C([2H])([2H])C([2H])([2H])C([2H])([2H])C1([2H])[2H]` [YF005, 10-(tert-Butyl)-3,8-dihydroxy-7-((piperidin-1-yl-d10)methyl-d2)-6H-benzofuran[3,2-c]chromen-6-one] stands at most 0.0039 µg/mL; under `[2H]C([2H])(c1c(O)cc(C(C)(C)C)c2oc3c4ccc(O)cc4oc(=O)c3c12)N1CCCCC1` [YF001, 10-(tert-Butyl)-3,8-dihydroxy-7-(piperidin-1-ylmethyl-d2)-6H-benzofuran[3,2-c]chromen-6-one], at most 0.0039 µg/mL.
